Experimental data as given in patent publication US20230090742A1, “AMINOPYRIMIDINYLAMINOBENZONITRILE DERIVATIVES AS NEK2 INHIBITORS” (Sumitomo Pharma Oncology, Inc., priority 2020, published 2023).

Target: T1, NEK2 (Homo sapiens, UniProt P51955)
T1 construct: expressed in transfected cells; host or cells: HEK293
T1 sequence (P51955 1-445): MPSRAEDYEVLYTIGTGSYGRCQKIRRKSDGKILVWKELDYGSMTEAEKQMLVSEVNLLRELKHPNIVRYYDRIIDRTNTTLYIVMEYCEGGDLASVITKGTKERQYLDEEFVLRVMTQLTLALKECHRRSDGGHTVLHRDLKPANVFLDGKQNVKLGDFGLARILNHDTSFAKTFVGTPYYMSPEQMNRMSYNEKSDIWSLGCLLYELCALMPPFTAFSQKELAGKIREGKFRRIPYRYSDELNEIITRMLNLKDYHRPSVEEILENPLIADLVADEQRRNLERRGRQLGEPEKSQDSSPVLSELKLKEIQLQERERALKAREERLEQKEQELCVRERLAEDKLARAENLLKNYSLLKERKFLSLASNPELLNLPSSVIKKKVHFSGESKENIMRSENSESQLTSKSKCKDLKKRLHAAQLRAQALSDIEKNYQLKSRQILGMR
Assay: NanoBRET Target Engagement Intracellular Kinase Assay for NEK2 in transfected HEK293 cells
Type: cell-based
Conditions: NEK2 target engagement, read-out: NanoBRET IC50
Description: In this example, the compounds described herein were tested for their inhibitory activity against NEK2 using a model of in vivo activity by the NanoBRET™ Target Engagement Intracellular Kinase Assay (Reaction Biology Corp.). The assay was performed according to the manufacturer's protocol, as detailed below.
HEK293 cells were cultivated (70-80% confluence) prior to the assay. The sample was trypsinized and HEK293 cells were collected.
To prepare lipid: DNA complexes, a 10 μg/ml solution of DNA in Opti-MEM without serum was prepared that consisted of the following ratios of carrier DNA and DNA encoding NanoLuc® fusion: 9.0 μg/ml of Transfection Carrier DNA, 1.0 μg/ml of NanoLuc fusion vector DNA and 1 ml of Opti-MEM without phenol red. The solution was mixed thoroughly. 30 μl of FuGENE HD Transfection Reagent was added into each milliliter of DNA mixture to form lipid: DNA complex. The sample was mixed by inversion 10 times and then incubated at ambient temperature for 20 minutes to allow complexes to form. In a sterile, conical tube, 1 part of lipid:DNA complex was mixed with 20 parts of HEK293 cells in suspension. The resulting sample was mixed gently by inversion 5 times. The cell and lipid: DNA complex was dispensed into a sterile tissue culture dish and incubated for 22-24 hours.
Each test compound is delivered from the compound source plate to the wells of 384-well white NBS plate by Echo 550.
Step 3. Preparation of Cells with NanoBRET™ Tracer K5 Reagent:
The medium was removed from the dish with the transfected HEK293 cells via aspiration, trypsinized and cells were allowed to dissociate from the dish. Trypsin was neutralized using medium containing serum and centrifuged at 200×g for 5 minutes to pellet the cells. The cell density was adjusted to 2×10^5 cells/ml in Opti-MEM without phenol red.
The Complete 20× NanoBRET™ Tracer K5 Reagent with Tracer Dilution Buffer was prepared according to the manufacturer's instructions. One part of Complete 20× NanoBRET™ Tracer Reagent was added to 20 parts of cells in the tube. The sample was mixed gently by inversion 10 times. Next, the cell suspension was dispensed into white, 384-well NBS plates with a final tracer K5 concentration of 2 μM. The plate was incubated at 37° C., 5% CO2 for 1 hour. A separate set of samples without tracer were prepared for background correction steps.
The plate was removed from the incubator and equilibrated to room temperature for 15 minutes. The 3× Complete Substrate plus Inhibitor Solution in Assay Medium (Opti-MEMR I Reduced Serum Medium, no phenol red) was prepared just before measuring BRET. The 3× Complete Substrate plus Inhibitor Solution was added to each well of the 384-well plate and incubated for 2-3 minutes at room temperature. The donor emission wavelength (460 nm) and acceptor emission wavelength (600 nm) were measured using the Envision 2104 plate reader.
To generate raw BRET ratio values, the acceptor emission value (600 nm) was divided by the donor emission value (460 nm) for each sample. To correct for background, the BRET ratio in the absence of tracer (average of no-tracer control samples) was subtracted from the BRET ratio of each sample.
BRET Ratio=[(Acceptor sample÷Donor sample)−(Acceptor no-tracer control÷Donor no-tracer control)]

SMILES: N#Cc1c(Nc2nc(Nc3ccc(N4CCNCC4)cc3)ncc2Cl)cccc1OCc1ccccc1F [Compound 16, 2-((5-chloro-2-((4-(piperazin-1-yl)phenyl)amino)pyrimidin-4-yl)amino)-6-((2-fluorobenzyl)oxy)benzonitrile]
- IC50: ≤ 50 nM
